The values that follow come from patent publication US20220298135A1, “5-HETEROARYL-PYRIDIN-2-AMINE COMPOUNDS AS NEUROPEPTIDE FF RECEPTOR ANTAGONISTS” (Domain Therapeutics, priority 2019, published 2022).

Data set [1] concerns the target T1, human NPFFR1 (hNPFFR1) receptor (Homo sapiens, UniProt Q9GZQ6).
T1 construct: expressed in transfected cells; host or cells: HEK-293 T cells, transient co-transfection with polyethylenimine
As to the kind of experiment: Human NPFFR1 evaluation using BRET biosensors (antagonist IC50). It counts as cell-based. The following applies: hNPFFR1 transiently over-expressed in HEK-293 T cells; BRET signal; stimulation by EC80 RFRP-3. As for the experimental part: Compounds of the present invention were tested successively for their agonist and antagonist activities on human NPFFR1 (hNPFFR1) receptor transiently over-expressed in HEK-293 T cells. Compounds exert agonist activity if, by themselves in absence of neuropeptide RFRP-3 (also named NPVF) they activate hNPFFR1; and they exert antagonist activity if they decrease the action of RFRP-3 on the receptor.
The assay used to measure compound activity is based on BRET (Bioluminescence Resonance Energy Transfer) biosensors and is designed to monitor the plasma membrane translocation of protein that interacts with specific Ga subunit. The specific effector (luciferase tagged: BRET donor) recruited at the membrane will be in close proximity to a plasma membrane anchor (GFP tagged: BRET acceptor) to induce a BRET signal. Biosensors are described in the patent application WO 2016/041093 A1 (Biosensors for monitoring biomolecule localization and trafficking in cells).
HEK-293 T cells are maintained in Dulbecco's Modified Eagle's Medium supplemented with 10% Foetal Calf Serum, 1% Penicillin/Streptomycin at 37° C./5% CO2.
Cells are co-transfected using polyethylenimine (25 kDa linear) with four DNA plasmids encoding: hNPFFR1, GαoB, a Gi family specific intracellular effector fused to luciferase (BRET donor), a plasma membrane effector fused to GFP (BRET acceptor). After transfection, cells are cultured for 48 h at 37° C./5% CO2.
Receptor activity is detected by changes in BRET signal.
On the day of the assay, cells are detached using trypsin 0.05%, resuspended in assay buffer (1.8 mM CaCl2, 1 mM MgCl2, 2.7 mM KCl, 137 mM NaCl, 0.4 mM NaH2PO4, 5.5 mM D-Glucose, 11.9 mM NaHCO3, 25 mM Hepes) and seeded in 384 well plate at a density of 20,000 cells per well. Then, plates are equilibrated 3.5 hours at 37° C. before adding compounds.
Compounds and luciferase substrate are added to the cells using an automated device (Freedom Evo®, Tecan) and BRET readings are collected on EnVision (PerkinElmer) with specific filters (410 nm BW 80 nm, 515 nm BW 30 nm).
Agonist and antagonist activities of compounds are consecutively evaluated on the same cell plate. Agonist activity is first measured after 10 minutes incubation with compound alone on the cells. Then, cells are stimulated by an EC80 RFRP-3 concentration and luminescence is recorded for additional 10 minutes. EC80 RFRP-3 concentration is the concentration giving 80% of the maximal RFRP-3 response. Agonist or antagonist activities are evaluated in comparison to basal signals evoked by assay buffer or EC80 RFRP-3 alone, respectively.
For IC50 determination, a dose-response test is performed using 20 concentrations (ranging over 6 logs) of each compound. Dose-response curves are fitted using the sigmoidal dose-response (variable slope) analysis in GraphPad Prism software (GraphPad Software) and IC50 of antagonist activity is calculated. Dose-response experiments are performed in duplicate, in two independent experiments.

T1 sequence (Q9GZQ6 whole entry): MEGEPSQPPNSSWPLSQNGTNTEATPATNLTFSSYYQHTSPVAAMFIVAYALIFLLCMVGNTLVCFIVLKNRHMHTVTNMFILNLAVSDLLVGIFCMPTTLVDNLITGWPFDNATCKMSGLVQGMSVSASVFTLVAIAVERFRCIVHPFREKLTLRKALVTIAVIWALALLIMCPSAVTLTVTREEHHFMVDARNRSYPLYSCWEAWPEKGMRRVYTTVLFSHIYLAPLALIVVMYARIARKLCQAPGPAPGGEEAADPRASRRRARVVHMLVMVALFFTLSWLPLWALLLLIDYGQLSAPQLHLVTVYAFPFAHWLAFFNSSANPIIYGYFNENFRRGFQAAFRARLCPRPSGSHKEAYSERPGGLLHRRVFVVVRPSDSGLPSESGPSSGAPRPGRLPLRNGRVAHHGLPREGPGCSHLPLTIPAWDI

A word on the melting point: it is the temperature of the solid-liquid transition. The term IC50 denotes the concentration needed to halve the response being measured. In the case of `Cl.Nc1ccc(-c2cccc3ccncc23)c(C2CC2)n1` [Example 15, 6-Cyclopropyl-5-(8-isoquinolyl)pyridin-2-amine], the melting point lay in the range of 200 to 215 °C. In addition, the IC50 in data set [1] was 100 to 1000 nM.
`Cn1cc(-c2ccc(N)nc2N)c2ccccc21` [Example 16, 3-(1-Methylindol-3-yl)pyridine-2,6-diamine] returned a melting point of 47 to 55 °C. Besides, the half-inhibitory concentration (IC50) in data set [1] was > 1000 nM.
In turn, `CC(C)(C)OC(=O)n1cc(-c2ccc(N)nc2N)c2ccccc21` [Example 17, Tert-butyl 3-(2,6-diamino-3-pyridyl)indole-1-carboxylate] gave a melting point of 150 to 154 °C. Also, the IC50 in data set [1] is > 1000 nM.
With `Nc1ccc(-c2c[nH]c3ccccc23)c(N)n1` [Example 18, 3-(1H-indol-3-yl)pyridine-2,6-diamine], the melting point fell in the range of 152 to 155 °C. The IC50 in data set [1] is > 1000 nM.
`Nc1ccc(-c2cnn3ccccc23)c(N)n1` [Example 19, 3-Pyrazolo[1,5-a]pyridin-3-ylpyridine-2,6-diamine] registered a melting point of 195 to 200 °C. Moreover, in data set [1], the half-inhibitory concentration (IC50) was > 1000 nM.
Turning to `Nc1ccc(-c2coc3ccccc23)c(N)n1` [Example 20, 3-(Benzofuran-3-yl)pyridine-2,6-diamine], the melting point lay in the range of 109 to 112 °C. Also, the IC50 in data set [1] was 100 to 1000 nM.
As to `Cl.Nc1ccc(-c2csc3ccccc23)c(N)n1` [Example 21, 3-(Benzothiophen-3-yl)pyridine-2,6-diamine], the melting point fell in the range of 35 to 38 °C. Moreover, in data set [1], the IC50 lay in the range of 100 to 1000 nM.
`Nc1ccc(-c2csc3ccc(F)cc23)c(N)n1` [Example 22, 3-(5-Fluoro-benzo[b]thiophen-3-yl)pyridine-2,6-diamine] displayed a melting point of 116 to 118 °C. In data set [1], this compound came in with an IC50 of 100 to 1000 nM.
Turning to `Cc1ccc2ccc(F)c(-c3ccc(N)nc3N)c2n1.Cl` [Example 23, 3-(7-fluoro-2-methylquinolin-8-yl)pyridine-2,6-diamine], the melting point lay in the range of 130 to 170 °C. In data set [1], the IC50 was < 100 nM.
In the case of `Cl.Nc1ccc(-c2cccc3[nH]ccc23)c(N)n1` [Example 24, 3-(1H-Indol-4-yl)pyridine-2,6-diamine], the melting point fell in the range of 150 to 154 °C. The IC50 in data set [1] lay within 100 to 1000 nM.
In the same order, the values of `Nc1ccc(-c2cccc3cc[nH]c23)c(N)n1` [Example 25, 3-(1H-indol-7-yl)pyridine-2,6-diamine] are 62 to 70 °C and < 100 nM.
Taken in the same sequence, the figures for `Cl.Cn1ncc2cccc(-c3ccc(N)nc3N)c21` [Example 26, 3-(1-Methylindazol-7-yl)pyridine-2,6-diamine] were 198 to 204 °C and 100 to 1000 nM.
As for `CN1Cc2c(cccc2-c2ccc(N)nc2N)C1=O` [Example 27, 4-(2,6-Diamino-3-pyridyl)-2-methyl-isoindolin-1-one], the melting point is > 250 °C. In addition, the IC50 in data set [1] is > 1000 nM.
On to `Cl.Nc1ccc(-c2cccc3c2OCC3)c(N)n1` [Example 28, 3-(2,3-Dihydrobenzofuran-7-yl)pyridine-2,6-diamine], for which the melting point was > 250 °C. In data set [1], this compound came in with an IC50 of 100 to 1000 nM.
Consider `Cl.Nc1ccc(-c2cccc3ccsc23)c(N)n1` [Example 29, 3-(Benzothiophen-7-yl)pyridine-2,6-diamine], for which the melting point is 100 to 113 °C. Moreover, the IC50 in data set [1] was in the range of 100 to 1000 nM.
In the case of `Cl.Nc1ccc(-c2cccc3scnc23)c(N)n1` [Example 30, 3-(1,3-Benzothiazol-4-yl)pyridine-2,6-diamine], the melting point is > 250 °C. The same compound registered an IC50 in data set [1] of 100 to 1000 nM.
Taken in the same sequence, the figures for `Cl.Nc1ccc(-c2cccc3ccncc23)c(N)n1` [Example 32, 3-Isoquinolin-8-yl-pyridine-2,6-diamine] were 77 to 88 °C and < 100 nM.
With `Nc1ccc(-c2cccc3cnccc23)c(N)n1` [Example 33, 3-(5-Isoquinolyl)pyridine-2,6-diamine], the melting point is > 250 °C. Moreover, the IC50 in data set [1] fell in the range of 100 to 1000 nM.
Taken in the same sequence, the figures for `Nc1ccc(-c2cccc3ncccc23)c(N)n1` [Example 34, 3-Quinolin-5-yl-pyridine-2,6-diamine] were > 250 °C and 100 to 1000 nM.
Consider `Nc1ccc(-c2ccnc3ccccc23)c(N)n1` [Example 35, 3-Quinolin-4-yl-pyridine-2,6-diamine], for which the melting point was > 250 °C. For the same compound, the IC50 in data set [1] was > 1000 nM.
The compound `Nc1ccc(-c2cncc3ccccc23)c(N)n1` [Example 36, 3-Isoquinolin-4-yl-pyridine-2,6-diamine] gave a melting point of 180 to 185 °C. Besides, the IC50 in data set [1] is > 1000 nM.
Compound `Cl.Nc1ccc(-c2cccc3c2OCCC3)c(N)n1` [Example 37, 3-Chroman-8-yl-pyridine-2,6-diamine] returned a melting point of 110 to 124 °C. The half-inhibitory concentration (IC50) in data set [1] is < 100 nM.
Compound `Cl.Nc1ccc(-c2cccc3c2OCCO3)c(N)n1` [Example 38, 3-(2,3-Dihydro-benzo[1,4]dioxin-5-yl)-pyridine-2,6-diamine] returned a melting point of 99 to 110 °C. Moreover, in data set [1], the IC50 fell in the range of 100 to 1000 nM.
Turning to `Cl.Nc1ccc(-c2cccc3c2sc2ccccc23)c(N)n1` [Example 39, 3-Dibenzothiophen-4-ylpyridine-2,6-diamine], the melting point fell in the range of 165 to 170 °C. For the same compound, in data set [1], the IC50 is < 100 nM.
`Cl.Nc1ccc(-c2cccc3c2oc2ccccc23)c(N)n1` [Example 40, 3-Dibenzofuran-4-ylpyridine-2,6-diamine] had a melting point of 135 to 143 °C. For the same compound, the IC50 in data set [1] is < 100 nM.
In the same order, the values of `CCc1nc(N)ccc1-c1c(C)sc2ccccc12.Cl` [Example 41, 6-Ethyl-5-(2-methylbenzothiophen-3-yl)pyridin-2-amine] are 70 to 72 °C and 100 to 1000 nM.
For `CCc1nc(N)ccc1-c1csc2ccc(C)cc12.Cl` [Example 42, 6-Ethyl-5-(5-methylbenzothiophen-3-yl)pyridin-2-amine], the melting point was 64 to 88 °C. This compound also had an IC50 in data set [1] of 100 to 1000 nM.
For `CCc1nc(N)ccc1-c1csc2ccc(F)cc12.Cl` [Example 43, 6-Ethyl-5-(5-fluorobenzothiophen-3-yl)pyridin-2-amine], the melting point is > 250 °C. The same compound came in with an IC50 in data set [1] of 100 to 1000 nM.
Consider `CCc1nc(N)ccc1-c1ccccc1-c1cccnc1.Cl` [Example 44, 6-Ethyl-5-[2-(3-pyridyl)phenyl]pyridin-2-amine], for which the melting point is > 250 °C. Further, the IC50 in data set [1] fell in the range of 100 to 1000 nM.
Compound `Cl.Nc1ccc(-c2ccccc2-c2cccnc2)c(N)n1` [Example 45, 3-[2-(3-pyridyl)phenyl]pyridine-2,6-diamine] came in with a melting point of 100 to 135 °C. Besides, in data set [1], the IC50 was in the range of 100 to 1000 nM.
`Cl.Nc1ccc(-c2ccccc2-c2ccc(N3CCOCC3)nc2)c(N)n1` [Example 46, 3-[2-(6-morpholino-3-pyridyl)phenyl]pyridine-2,6-diamine] registered a melting point of 180 to 210 °C. For the same compound, in data set [1], the IC50 was < 100 nM.
As for `CCc1nc(N)ccc1-c1cccc2cccnc12.Cl` [Example 47, 6-ethyl-5-(quinolin-8-yl)pyridin-2-amine], the melting point is > 250 °C. Further, the IC50 in data set [1] is < 100 nM.
